Data from US7342100B2, “Hpr6 mutants and uses thereof” (University of Kentucky Research Foundation, priority 2004, dated 2008).

Columns and labels:
[1] = Heme binding of purified Hpr6 proteins by absorbance at 400 nm; settings: purified protein liberated from GST fusion, triplicate
Description: FIG. 2. […] 2A: Purification of GST-Hpr6 (lane 1) and GST-Hpr6-mut (lane 2) fusion proteins. Proteins were purified using glutathione-agarose and analyzed by SDS-PAGE electrophoresis. 2B: Heme binding by Hpr6 (left column) but not Hpr6-mut (right column). Solubilized proteins were analyzed for absorbance at 400 nm, and measurements were performed in triplicate. 2C: western blot analysis of MDA-MB-231 cells infected with 500, 1000, or 2000 pfu/cell of Ad-Hpr6-mut (lanes 1-3) or 2000 pfu/cell of Ad-LacZ (lane 4). Hpr6 expression was visualized with an antibody to the HA epitope tag. D. The Hpr6-mut protein is overexpressed compared to endogenous Hpr6 following Ad-Hpr6-mut infection. MDA-MB 231 cells were infected with Ad-LacZ (lane 1) or Ad-Hpr6-mut (lane 2) and analyzed by western blots probed for HA (top panel), Hpr6 (middle panel), or tubulin (bottom panel). The positions of the exogenous Hpr6-mut and endogenous Hpr6 protein are indicated in the center panel (top and bottom, respectively).
Fusion protein plasmids, preparation, and analysis. Hpr6-GST fusion proteins contained amino acids 43-195 of the Hpr6 open reading frame. […]
Hpr6 binds to heme, and the D120G mutation in the heme-1 domain blocks heme-binding activity. […] The measurement was performed in triplicate, and the difference between Hpr6 and Hpr6-D120G absorbance was statistically significant (P=0.03). […]

Hpr6 = test: Induction of Hpr6 expression by drugs, western blot; type: cell-based, human
Text: 1A: western blot analysis showing expression of Hpr6 (top panel) and tubulin (bottom panel) in the cell lines BT549 (lane 1), MCF-7 (lane 2), HCT-100 (lane 3), MDA-MB-231 (lane 4), MDA-MB-435 (lane 5), and HeLa (lane 6). […] The position of molecular weight markers is indicated to the left. […] MDA-MB-231 cells were untreated (upper panel, lane 1), treated with 0.5 or μM doxorubicin (upper panel, lanes 2 and 3), or 0.25 1 μm camptothecin (upper panel, lane 4) for 3 days, and the expression of Hpr6 was analyzed by western blot.
Drug treatment, viability assays, and immunological analyses. Doxorubicin (Sigma, St. Louis, Mo.) was added to culture media and incubated for five days. Cells were incubated with hydrogen peroxide (Fisher), mechlorethamine (kindly provided by Dr. Robert Orlowski, University of North Carolina at Chapel Hill) or camptothecin (Sigma) for 72 hours. Trypan blue and MTT assays were performed using standard techniques as previously described (Hand et al. Journal of Cellular Biochemistry 2003; 90: 534-47). Western blots of cultured cells and tumors were performed as described previously (Hand et al. Journal of Cellular Biochemistry 2003; 90: 534-47; Yang et al. Tumor Biology 2003; 24: 61-9). The antibodies used were as follows: anti-HA (HAll, BAbCo, Berkeley, Calif.), tubulin (Fisher), and Hpr6 (Meyer et al. Steroids 1998; 63: 111-6). Cells were visualized using a VistaVision inverted microscope attached to a Sony DCS F717 digital camera (VWR, Batavia, Ill.). For immunofluorescence, MCF-7/vector and MCF-7/Hpr6 cells (Hand et al. Journal of Cellular Biochemistry 2003; 90: 534-47) were fixed with 3.7% formaldehyde, permeabilized with 0.1% Triton X-100, blocked with 10% normal goat serum, and incubated with the HAll monoclonal antibody. Cells were then washed, incubated with a FITC-Iabeled anti-mouse secondary antibody (Santa Cruz Biotechnology, Santa Cruz, Calif.), washed, mounted, and visualized using a Zeiss fluorescent microscope.
The effect of the Ad-Hpr6-mut adenovirus in response to chemotherapy was analyzed for two reasons. First, the budding yeast homologue of Hpr6 controls resistance to damaging agents.

Compound	heme binding (absorbance at 400 nm) [1]	induction of Hpr6 expression (Hpr6; MCF-7 cells, data not shown)	induction of Hpr6 expression (Hpr6; MDA-MB-231 cells, western blot)
Hpr6: wild-type human heme-1 domain protein Hpr6	bound efficiently to heme	–	–
Hpr6-D120G: mutant Hpr6 polypeptide, SEQ ID NO:1, aspartic acid 120 in heme binding region mutated to glycine; inactive form	absent	–	–
COc1cccc2c1C(=O)c1c(O)c3c(c(O)c1C2=O)C[C@@](O)(C(=O)CO)C[C@@H]3O[C@H]1C[C@H](N)[C@H](O)[C@H](C)O1 [doxorubicin]	–	induced	induced
N.N.[Cl][Pt][Cl] [cisplatinum]	–	–	not induced
CC[C@@]1(O)C(=O)OCc2c1cc1n(c2=O)Cc2cc3ccccc3nc2-1 [camptothecin]	–	induced	induced
OO [hydrogen peroxide]	–	–	not induced
